In US10800774B2, “Heterocyclic inhibitors of ATR kinase” (Board of Regents, The University of Texas System, priority 2017, dated 2020):

Key:
ATR/ATRIP complex = ATR/ATRIP complex (Homo sapiens (Human), UniProt Q13535); assay: ATR/ATRIP enzymatic assay (Caliper-based); format: biochemical; conditions: FAM-labeled RAD17 peptide, ATP; read-out: ATR/ATRIP Enzyme IC50
Procedure: Human full-length FLAG-TEV-ATR and His6-ATRIP were co-expressed in HEK293 cells. […] The sample was loaded into a column, and then washed with buffer A three times. Protein was subsequently eluted with 2 ml of buffer B (buffer A+200 μg/ml 3×FLAG peptide).
The ability of new chemical matter to inhibit the ATR catalytic activity in this ATR/ATRIP complex was assessed using a Caliper-based assay. A 2× enzyme solution (i.e., 4 nM enzyme) was prepared using 1× Kinase Reaction Buffer (25 mM HEPES pH 8, 0.0055% Brij-35, 10 mM MnCl2, and 1 mM DTT). […] 10 μL of the 2× enzyme solution was transferred to an assay plate containing 60 nL of test compound (from a 3× serial dilution) in 100% DMSO. Following a 30 minute incubation at 28° C., 10 μL of the 2× peptide solution was then transferred to the same assay plate. The reaction was allowed to incubate at 28° C. for 6 hours. After adding […] of stop buffer (100 mM HEPES pH 7.5, 0.015% Brij-35, 0.2% Coating-3 Reagent (PerkinElmer, catalog # PN760050), and 50 mM EDTA), data were collected on a Caliper instrument. Conversion values were converted to inhibition values via the following equation: % inhibition=(max−conversion)/(max−min)*100, whereby “max” corresponds to the DMSO control and “min” corresponds to the low control. IC50 values were calculated using the following equation in XLFit: Y=Bottom+(Top−Bottom)/1+(IC50/X)^HillSlope).

[1] = test system: ATR-driven phosphorylation of Chk1 kinase at Serine 345 in HT-29 cells; assay: pCHK1 cellular assay (CHK1 p-Ser345 AlphaScreen SureFire); conditions: Homo sapiens, HT-29, read-out: pCHK1 Cell IC50
Procedure: The microplate was incubated overnight (approximately 20 hours) at 37° C. with 5% CO2 and ambient 02. Stock solutions of the test compounds were prepared in 100% DMSO (Sigma, Catalog # D2650) and serially diluted 1:3 using 100% DMSO. Compounds were additionally diluted 1:33 in culture medium, and 10 ul/well were transferred to the tissue culture plate. Following the compound addition the microplate was incubated at 37° C. for 90 minutes. […] The cells were then washed with PBS and lysed using 10 uL/well […] ® Kit lysis buffer diluted to 1× in water (PerkinElmer Catalog # TGRCHK1S50K), with mixing on an orbital shaker at 500 rpm for 20 min at RT. Lysates were frozen at −20° C. overnight.
The pCHK1 ALPHASCREEN® signal was measured using an ENVISION® plate reader (PerkinElmer). IC50 values were calculated using a four-parameter logistic curve fit using Genedata Screener software. Percent of control for each compound concentration was calculated by the following formula: 100*(Compound-Min)/(Max-Min) where “Max” is the high control, DMSO, and “Min” is the low control, 5 uM ATR inhibitor.

ATR/ATRIP complex, sequence (Q13535 whole entry): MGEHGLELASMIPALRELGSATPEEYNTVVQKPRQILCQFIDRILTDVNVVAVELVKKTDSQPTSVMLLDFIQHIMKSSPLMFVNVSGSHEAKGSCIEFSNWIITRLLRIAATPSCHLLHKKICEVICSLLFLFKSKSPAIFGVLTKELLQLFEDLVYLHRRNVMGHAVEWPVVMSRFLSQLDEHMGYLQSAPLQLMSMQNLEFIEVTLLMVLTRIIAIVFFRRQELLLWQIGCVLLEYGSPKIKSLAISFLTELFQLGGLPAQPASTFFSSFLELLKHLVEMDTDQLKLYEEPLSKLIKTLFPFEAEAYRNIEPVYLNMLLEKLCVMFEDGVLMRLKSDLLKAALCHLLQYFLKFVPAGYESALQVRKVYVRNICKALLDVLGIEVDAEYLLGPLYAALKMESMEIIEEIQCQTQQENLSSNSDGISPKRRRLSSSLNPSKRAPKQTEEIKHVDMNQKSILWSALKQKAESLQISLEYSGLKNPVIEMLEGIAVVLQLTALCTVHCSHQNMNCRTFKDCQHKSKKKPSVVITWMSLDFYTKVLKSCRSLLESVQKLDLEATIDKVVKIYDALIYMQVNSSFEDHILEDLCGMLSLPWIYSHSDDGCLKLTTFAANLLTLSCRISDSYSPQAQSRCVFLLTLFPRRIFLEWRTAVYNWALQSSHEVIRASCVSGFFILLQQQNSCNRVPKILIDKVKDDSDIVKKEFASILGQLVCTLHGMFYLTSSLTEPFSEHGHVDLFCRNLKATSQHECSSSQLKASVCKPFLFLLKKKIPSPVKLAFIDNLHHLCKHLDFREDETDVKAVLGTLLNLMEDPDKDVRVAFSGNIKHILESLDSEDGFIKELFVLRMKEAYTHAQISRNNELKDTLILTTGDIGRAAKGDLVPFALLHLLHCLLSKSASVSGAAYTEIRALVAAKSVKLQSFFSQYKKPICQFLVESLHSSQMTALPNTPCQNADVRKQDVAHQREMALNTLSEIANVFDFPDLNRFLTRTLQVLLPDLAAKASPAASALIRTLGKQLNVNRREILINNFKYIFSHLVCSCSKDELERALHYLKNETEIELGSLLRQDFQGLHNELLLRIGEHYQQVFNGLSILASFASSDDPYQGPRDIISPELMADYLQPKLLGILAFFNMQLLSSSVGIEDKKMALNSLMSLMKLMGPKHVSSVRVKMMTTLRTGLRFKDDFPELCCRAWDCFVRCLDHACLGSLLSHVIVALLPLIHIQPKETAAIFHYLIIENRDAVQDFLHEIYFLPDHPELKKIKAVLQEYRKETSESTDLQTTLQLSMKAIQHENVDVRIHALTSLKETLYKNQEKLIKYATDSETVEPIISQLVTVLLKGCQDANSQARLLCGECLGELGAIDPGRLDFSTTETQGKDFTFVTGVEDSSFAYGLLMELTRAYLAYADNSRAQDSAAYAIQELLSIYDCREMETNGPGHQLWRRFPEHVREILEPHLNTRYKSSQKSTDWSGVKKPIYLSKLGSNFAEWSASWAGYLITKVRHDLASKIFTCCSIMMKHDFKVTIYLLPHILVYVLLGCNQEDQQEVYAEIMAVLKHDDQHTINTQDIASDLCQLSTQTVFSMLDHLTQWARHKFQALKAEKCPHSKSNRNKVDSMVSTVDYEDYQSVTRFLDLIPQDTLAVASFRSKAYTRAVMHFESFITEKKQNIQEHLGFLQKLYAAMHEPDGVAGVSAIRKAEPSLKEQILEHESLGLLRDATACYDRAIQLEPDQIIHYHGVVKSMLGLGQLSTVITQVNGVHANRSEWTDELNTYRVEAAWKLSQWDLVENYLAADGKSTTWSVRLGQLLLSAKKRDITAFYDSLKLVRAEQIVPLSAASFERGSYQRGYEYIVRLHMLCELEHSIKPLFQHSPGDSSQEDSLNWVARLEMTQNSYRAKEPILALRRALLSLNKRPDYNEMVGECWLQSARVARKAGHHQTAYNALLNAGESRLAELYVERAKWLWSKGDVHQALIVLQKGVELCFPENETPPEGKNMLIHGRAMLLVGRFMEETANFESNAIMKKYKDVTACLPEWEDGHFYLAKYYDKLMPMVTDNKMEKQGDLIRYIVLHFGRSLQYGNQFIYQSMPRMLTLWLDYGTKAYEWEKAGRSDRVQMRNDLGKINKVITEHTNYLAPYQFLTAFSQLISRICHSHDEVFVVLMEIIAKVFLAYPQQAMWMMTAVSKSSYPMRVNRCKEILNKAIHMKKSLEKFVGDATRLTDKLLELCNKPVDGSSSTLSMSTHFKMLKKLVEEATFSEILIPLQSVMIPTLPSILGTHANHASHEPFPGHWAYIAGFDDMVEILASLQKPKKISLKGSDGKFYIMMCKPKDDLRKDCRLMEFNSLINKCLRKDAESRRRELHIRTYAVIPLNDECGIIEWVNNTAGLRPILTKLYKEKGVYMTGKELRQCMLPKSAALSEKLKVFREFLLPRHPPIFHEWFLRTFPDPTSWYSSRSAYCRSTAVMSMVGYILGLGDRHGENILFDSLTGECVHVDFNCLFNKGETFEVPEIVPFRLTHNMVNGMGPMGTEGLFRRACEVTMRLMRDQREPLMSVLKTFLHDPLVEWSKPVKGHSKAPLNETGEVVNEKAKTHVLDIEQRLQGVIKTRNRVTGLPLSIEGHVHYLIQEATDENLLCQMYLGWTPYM
ATR/ATRIP complex, sequence (Q8WXE1 whole entry partner): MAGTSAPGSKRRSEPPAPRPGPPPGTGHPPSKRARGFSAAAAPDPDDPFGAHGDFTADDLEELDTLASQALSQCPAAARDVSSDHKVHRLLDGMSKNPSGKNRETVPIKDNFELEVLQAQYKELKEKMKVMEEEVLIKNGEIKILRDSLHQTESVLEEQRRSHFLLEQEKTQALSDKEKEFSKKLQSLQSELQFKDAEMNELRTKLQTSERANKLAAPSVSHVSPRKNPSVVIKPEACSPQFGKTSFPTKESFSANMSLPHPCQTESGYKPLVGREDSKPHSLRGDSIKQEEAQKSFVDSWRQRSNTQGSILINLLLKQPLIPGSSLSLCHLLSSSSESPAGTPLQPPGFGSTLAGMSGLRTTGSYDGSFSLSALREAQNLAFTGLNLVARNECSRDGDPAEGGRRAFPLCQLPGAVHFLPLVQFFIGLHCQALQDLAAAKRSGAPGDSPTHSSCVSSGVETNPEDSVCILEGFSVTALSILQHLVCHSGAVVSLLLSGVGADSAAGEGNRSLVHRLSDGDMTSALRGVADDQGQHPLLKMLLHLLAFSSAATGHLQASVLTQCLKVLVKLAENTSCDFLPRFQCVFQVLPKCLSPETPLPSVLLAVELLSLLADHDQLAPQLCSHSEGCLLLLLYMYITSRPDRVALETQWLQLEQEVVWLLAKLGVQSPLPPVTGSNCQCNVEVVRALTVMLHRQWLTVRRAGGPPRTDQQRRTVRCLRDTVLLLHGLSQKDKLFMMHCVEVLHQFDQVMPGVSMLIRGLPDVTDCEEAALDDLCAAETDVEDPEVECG

SMILES | IC50 (ATR/ATRIP complex) [nM] | IC50 [1] [nM]
CCN1CCCN(c2cc(N3CCOC[C@H]3C)nc(-c3cc(Cl)nc4[nH]ccc34)n2)S1(=O)=O [Example 9, 2-(2-{6-Chloro-1H-pyrrolo[2,3-b]pyridin-4-yl}-6-[(3R)-3-methylmorpholin-4-yl]pyrimidin-4-yl)-6-ethyl-1λ^6,2,6-thiadiazinane-1,1-dione] | 115 | 570
C[C@@H]1COCCN1c1cc([C@@]2(C)CCCS2(=O)=O)nc(-c2ccnc3[nH]ccc23)n1 [Example 30b, (R)-2-methyl-2-(6-((R)-3-methylmorpholino)-2-(1H-pyrrolo[2,3-b]pyridin-4-yl)pyrimidin-4-yl)tetrahydrothiophene 1,1-dioxide] | 6 | 106
